Source: US10583127B2, “Amine salt of (1R, 3S)-3-(5-cyano-4-phenyl-1,3- thiazol-2-ylcarbamoyl)cyclopentane carboxylic acid” (PALOBIOFARMA, S.L., priority 2017, dated 2020)
“Also recorded” adds a separate entry of the source. Read-outs that look alike come from different tables or passages of the source.

What was measured:
[1] = Stability study under forced conditions (one week at 40° C. and 70% RH, XRPD check); type: physicochemical
Protocol: Stability studies under forced conditions were carried out by keeping the product under study for one week at 40° C. and 70% RH. Salts were analyzed by XRPD to check any change in the crystalline form.

[2] = Hygroscopicity study by Dynamic Vapour Sorption (DVS) profiles; type: physicochemical; conditions: for moisture content at 25% RH / moisture content at 55% RH / moisture content at 75% RH (variation in the moisture content): DVS sorption isotherm at 25° C.
Protocol: Hygroscopicity studies of salts were carried out by preparation of Dynamic Vapour Sorption (DVS) profiles, with a TA instrument Q5000 apparatus. After an initial stabilization period (samples are pre-dried at 60° C. under vacuum), isotherms (at 25° C.) were obtained for each sample: a moisture sorption from 0 to 95% relative humidity (RH) and moisture desorption from 95% RH to dryness. Both isotherms were performed in 5% and 10% humidity steps.
The relative humidity (RH) was controlled by a mixture of wet and dry nitrogen stream. The RH was held constant until the equilibrium had been obtained (constant weight) or until the maximum time has been reached, before changing the RH to the next level.

in vivo = conditions: male, SD, rat
Protocol: (§1) Animals were divided into two groups: Group 1 (IV: 1 mg/kg) and Group 2 (PO: 5 mg/kg). […] The blood samples were collected from set of three rats at each time point in labeled micro centrifuge tube containing K2EDTA solution as anticoagulant at Pre-dose, 0.083, 0.25, 0.5, 1, 2, 4, 8 and 24 hr (IV) and Pre-dose, 0.25, 0.5, 1, 2, 4, 6, 8 and 24 hr (PO). Plasma samples were separated by centrifugation of whole blood and stored below −70±10° C. until bioanalysis. All samples were processed for analysis by protein precipitation using acetonitrile and analyzed with fit-for-purpose LC-MS/MS method (LLOQ=1.00 ng/ml). Pharmacokinetic parameters were calculated using the non-compartmental analysis tool of Phoenix WinNonlin® (Version 6.3).
(§2) AUC last refers to the area under the curve from the time of dosing to the time of last observation that is greater than the limit of quantitation.
(§3) Clearance refers to the measurement of the ability of the body to remove drug from the plasma, and is calculated from the intravenous dosing.
(§4) F % refers to the bioavailability. The systemic availability of a compound after oral administration is calculated using the following equation: F(%)=(AUClast PO×Dose IV/AUClast IV×Dose PO)×100

physchem = conditions: 37 °C, aqueous with cosolvent or surfactant or cyclodextrin, kinetic from dmso stock
Protocol: (§5) Solubility screen assays were carried out as following: stock solutions (10^−2M) of the assayed compounds were diluted to decreased molarity from 500 μM to 0.256 nM, in 384 well transparent plate (Greiner 781101) with 5% DMSO: 95% PBS buffer. Samples were incubated at 37° C. and read after 2 and 4 hours in a NEPHELOstar Plus (BMGLABTECH).

[3] = Oral bioavailability assay: plasma pharmacokinetics after single IV and PO administration; conditions: male SD rats
Protocol: as §1, §2, §3, §4

[4] = Solubility screen assay (nephelometry); conditions: 37° C.
Protocol: as §5

[5] = DVS, usual drug storage conditions (<75% RH)
[6] = listed as (1R-3S)-3-(5-cyano-4-phenyl-1,3-thiazol-2-ylcarbamoyl)cyclopentane carboxylic ac

N#Cc1sc(NC(=O)[C@H]2CC[C@@H](C(=O)[O-])C2)nc1-c1ccccc1.[Na+] [Sodium (1R,3S)-3-((5-cyano-4-phenylthiazol-2-yl)carbamoyl)cyclopentane-1-carboxylate]
stability under forced conditions (result in words) [1]: did not have good stability, changed color | hygroscopicity (result in words) [2, 5]: showed evident hygroscopicity | AUC(0-t) (in vivo; iv, 1 mg/kg): 5090 ng·h/mL | clearance (in vivo; iv, 1 mg/kg): 3.31 mL/min/kg | AUC(0-t) (in vivo; po, 5 mg/kg): 21600 ng·h/mL | Cmax (in vivo; po, 5 mg/kg): 13200 ng/mL | bioavailability (in vivo; po, 5 mg/kg): 85% | solubility (physchem): 36.3 µM

N#Cc1sc(NC(=O)[C@H]2CC[C@@H](C(=O)O)C2)nc1-c1ccccc1 [(1R,3S)-3-(5-cyano-4-phenyl-1,3-thiazol-2-ylcarbamoyl)cyclop] [(1R,3S)-3-(5-cyano-4-phenyl-1,3-thiazol-2-ylcarbamoyl)cyclopentane carboxylic acid]
moisture content at 25% RH [2]: 0.1283% | moisture content at 55% RH [2]: 0.3008% | moisture content at 75% RH (variation in the moisture content) [2]: 0.4369% | moisture content at 75% RH (variation in the moisture content) ([2]; listed as free acid): 0.43% | hygroscopicity (result in words) [2, 5]: exhibits certain levels of hygroscopicity

CCNCC.N#Cc1sc(NC(=O)[C@H]2CC[C@@H](C(=O)O)C2)nc1-c1ccccc1 [Diethylammonium (1R,3S)-3-((5-cyano-4-phenylthiazol-2-yl)carbamoyl)cyclopentane-1-carboxylate]
stability under forced conditions (result in words) [1]: showed some degradation | clearance ([3]; iv 1 mg/Kg): 5.02 mL/min/kg | AUC last ([3]; iv 1 mg/Kg, plasma): 3383.00 ng·h/mL | F % (bioavailability) ([3]; po 5 mg/Kg vs iv 1 mg/Kg, from AUClast): 68% | AUC last ([3]; po 5 mg/Kg, plasma): 11580.30 ng·h/mL | Cmax ([3]; po 5 mg/Kg, solution in normal saline, plasma): 5906.53 ng/mL

N#Cc1sc(NC(=O)[C@H]2CC[C@@H](C(=O)O)C2)nc1-c1ccccc1 [(1R,3S)-3-(5-cyano-4-phenyl-1,3-thiazol-2-ylcarbamoyl)cyclop] [1,3-dihydroxy-2-(hydroxymethyl)propan-2-aminium (1R,3S)-3-((5-cyano-4-phenylthiazol-2-yl)carbamoyl)cyclopentane-1-carboxylate]
stability under forced conditions (result in words) [1]: no cristallinity changes, colour or any other change in the aspect were observed; also recorded: stable solid, even under forced stability conditions | moisture content at 25% RH [2, 6]: 0.0722% | moisture content at 55% RH [2, 6]: 0.1165% | moisture content at 75% RH (variation in the moisture content) [2, 6]: 0.2096% | moisture content at 75% RH (variation in the moisture content) ([2]; listed as tromethamine salt): 0.17% | hygroscopicity (result in words) [2, 5]: less hygroscopic than the free acid form | hygroscopicity (result in words) ([2]; DVS, usual drug storage conditions (<75% RH), listed as tromethamine salt): less hygroscopic than free acid | solubility compared with other salts and free acid [4]: higher solubility compared to others salts | AUC last ([3]; iv 1 mg/Kg, plasma, 1 mg/kg): 2373.87 ng·h/mL | clearance ([3]; iv 1 mg/Kg, 1 mg/kg): 7.11 mL/min/kg

N#Cc1sc(NC(=O)[C@H]2CC[C@@H](C(=O)O)C2)nc1-c1ccccc1 [(1R,3S)-3-(5-cyano-4-phenyl-1,3-thiazol-2-ylcarbamoyl)cyclopentane carboxylic acid]
AUC(0-t) ([3]; male, SD, rat, plasma, iv, 1 mg/kg, AUC last, iv 1 mg/Kg): 2200 ng·h/mL | clearance ([3]; male, SD, rat, plasma, iv, 1 mg/kg, Clearance, iv 1 mg/Kg): 6.3 mL/min/kg

Magnesium (1R,3S)-3-((5-cyano-4-phenylthiazol-2-yl)carbamoyl)cyclopentane-1-carboxylate
hygroscopicity (result in words) [2]: very hygroscopic | moisture content at 25% RH [2]: 4.929% | moisture content at 55% RH [2]: 11.27% | moisture content at 75% RH (variation in the moisture content) [2]: 18.11% | moisture content at 75% RH (variation in the moisture content) ([2]; listed as magnesium salt): 18%
